Assay results taken from PubChem BioAssay AID2060909 (Molecular Pharmacology Branch, DTP, NCI, 2025).

Tested on: 362531-283-R-J2-PDC complex spheroid viability
Test: Anticancer human tumor 362531-283-R-J2-PDC patient-derived colon adenocarcinoma cell line growth inhibition [RAS]
Settings: for IC50: curve of first compound; for viability, T/C: stronger effect = lower value
From the text: RAS pathway inhibitors in Combinations in Complex Spheroids
A high-throughput screen of multi-cell type tumor spheroids was designed to identify active combinations of RAS pathway inhibitors and targeted small molecules. Complex spheroids include a stromal component modeled by human endothelial cells (HUVEC) and fibroblasts modeled by human mesenchymal stem cells (MSCs). The concentration ranges selected for each drug and investigational agent were based upon clinically achievable concentrations if the clinical Cmax of the agent was known.
Compounds. The drugs and investigational agents: abemaciclib (NSC768073), cobimetinib (NSC768068), divarasib (GDC6063, NSC841802), docetaxel (NSC628503), GDC-1971 (RLY-1971, NSC841576), gemcitabine (NSC613327), inavolisib (NSC800729), ipatasertib (NSC767898), KB-0742 (NSC834161), MRTX-1133 (NSC836407), osimertinib (NSC779217), RMC-4630 (NSC839698), RMC-6236 (NSC851965), RMC-6291 (NSC852671), Ro-3306 (NSC812927), sapanisertib (NSC764658), SN-38 (NSC673596), staurosporine (NSC755774), SY5609 (NSC837396), and tovorafenib (DAY101, NSC766906), were obtained from the National Cancer Institute (NCI) Developmental Therapeutics Program Chemical Repository. The FDA-approved anticancer drug set is available from the NCI Developmental Therapeutics Program. […] The stock solutions were prepared in dimethyl sulfoxide (DMSO, Sigma-Aldrich, St. Louis, MO, cat. D2650) at 800-fold the tested concentration and stored at -70 degrees C prior to their use. All drugs and investigational agents were tested over a range starting from a high concentration at or near the clinical Cmax and decreasing in half-log increments. If the clinical Cmax for an agent had not been determined, the highest concentration tested was 10 microM.
Cell Culture. All cells were maintained in an incubator at 37 degrees C and 5% CO2 with 95% humidity. The PDC lines were cultured according to standard operating procedures established by the NCI PDMR. All PDCs were thawed and cultured in Matrigel-coated flasks prepared with a working solution of 1X Ham's F-12 nutrient mix, without supplementation (Invitrogen, Waltham, MA, cat. 11765054), 100 U/mL penicillin-streptomycin (Invitrogen, cat. 15140122), and 2.5% Matrigel (Corning Inc., Corning, NY, cat. 354248) for the first three passages. The 362531-283-R-J2-PDC and 782815-120-R-J1-PDC lines were cultured in 6C/Colon 1B media, which includes advanced DMEM/F-12 (Thermo Fisher Scientific, cat. 12634028), 10 mM HEPES (Thermo Fisher Scientific, cat. 15630080), 1X GlutaMAX supplement (Thermo Fisher Scientific, cat. 35050061), 0.1 mg/mL primocin (InvivoGen, San Diego, CA, cat. ant-pm-2), 10% defined fetal bovine serum, heat inactivated (HyClone Laboratories Inc., Logan, UT, cat. SH30070.03HI), 50% L-WRN conditioned media (ATCC, cat. CRL-3276), 1.25 mM N-Acetyl-L-cysteine (Sigma-Aldrich, cat. A9165), 10 mM nicotinamide (Sigma-Aldrich, cat. N0636), 1X B-27 supplement (Thermo Fisher Scientific, cat. 17504044), 1X N-2 supplement (Thermo Fisher Scientific, cat. 17502048), 50 ng/mL human EGF (Thermo Fisher Scientific, cat. PHG0311), and 10 microM Y-27632 dihydrochloride (Tocris Bioscience, cat. 1254). The K12877-001-R-J1-PDC line was cultured in 6I media, which includes all 6C/Colon 1B media plus 10 ng/mL human FGF-10 (PeproTech, cat. 100-26), 1 ng/mL human FGF-2 (PeproTech, cat. 100-18B), 1 µM prostaglandin E2 (Tocris Bioscience, cat. 2296), […] hydrocortisone (Sigma-Aldrich, cat. H4001), and […] bovine insulin (Sigma-Aldrich, cat. I6634). The K86415-001-R-J1-PDC line was cultured in 6D media, which includes all 6C/Colon 1B media components minus the L-WRN conditioned media. The 485176-168-R4-J1-PDC was cultured in PANC media, which includes all 6C/Colon 1B media plus 100 ng/mL human FGF-10 (PeproTech, cat. 100-26), 500 nM SB-431542 (Selleckchem, cat. S1067), and 10 nM gastrin (Tocris Bioscience, cat. 3006). […]

[1] = second compound 0.0316 µM, first compound 0.0316 µM
[2] = second compound 0.0316 µM, first compound 0.1 µM
[3] = second compound 0.0316 µM, first compound 0.316 µM
[4] = second compound 0.0316 µM, first compound 1 µM
[5] = second compound 0.1 µM, first compound 0.0316 µM
[6] = second compound 0.1 µM, first compound 0.1 µM
[7] = second compound 0.1 µM, first compound 0.316 µM
[8] = second compound 0.1 µM, first compound 1 µM
[9] = second compound 0.316 µM, first compound 0.0316 µM
[10] = second compound 0.316 µM, first compound 0.1 µM
[11] = second compound 0.316 µM, first compound 0.316 µM
[12] = second compound 0.316 µM, first compound 1 µM
[13] = second compound 1 µM, first compound 0.0316 µM
[14] = second compound 1 µM, first compound 0.1 µM
[15] = second compound 1 µM, first compound 0.316 µM
[16] = second compound 1 µM, first compound 1 µM
[17] = second compound 3.16 µM, first compound 0.0316 µM
[18] = second compound 3.16 µM, first compound 0.1 µM
[19] = second compound 3.16 µM, first compound 0.316 µM
[20] = second compound 3.16 µM, first compound 1 µM
[21] = second compound 10 µM, first compound 0.0316 µM
[22] = second compound 10 µM, first compound 0.1 µM
[23] = second compound 10 µM, first compound 0.316 µM
[24] = second compound 10 µM, first compound 1 µM
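Also: spheroids exposed to the agents for 7 days before readout.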
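For viability, T/C in this document: luminescence viability as percent of DMSO vehicle control wells.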

`CC1(O)CCCC1n1c(=O)c(C(F)F)cc2cnc(NC3CCN(S(C)(=O)=O)CC3)nc21` (centres undefined) + C#Cc1c(F)ccc2cc(O)cc(-c3ncc4c(N5CC6CCC(C5)N6)nc(OCC56CCCN5CC(F)C6)nc4c3F)c12 showed an IC50 (second compound 0.0316 µM) greater than 10 µM, an IC50 (second compound 0.1 µM) greater than 10 µM and an IC50 (second compound 0.316 µM) of 3.08 µM. The IC50 (second compound 1 µM) was 3.43 µM, the IC50 (second compound 3.16 µM) was 1.29 µM and the IC50 (second compound 10 µM) was less than 0.0316 µM. For the same compound, the viability, T/C [1] was 92.6%, the viability, T/C [2] was 91.8% and the viability, T/C [3] was 71.8%. For the same compound, the viability, T/C [4] was 71%, the viability, T/C (second compound 0.0316 µM, first compound 3.16 µM) was 62.3% and the viability, T/C (second compound 0.0316 µM, first compound 10 µM) was 81%. The viability, T/C [5] was 95.4%, the viability, T/C [6] was 92.5% and the viability, T/C [7] was 80.9%. The viability, T/C [8] was 73.4%, the viability, T/C (second compound 0.1 µM, first compound 3.16 µM) was 68.7% and the viability, T/C (second compound 0.1 µM, first compound 10 µM) was 73.2%. The viability, T/C [9] was 82.7%, the viability, T/C [10] was 89.1% and the viability, T/C [11] was 74.6%. It also gave a viability, T/C [12] of 66.4%, a viability, T/C (second compound 0.316 µM, first compound 3.16 µM) of 49.8% and a viability, T/C (second compound 0.316 µM, first compound 10 µM) of 37%. The viability, T/C [13] was 82.8%, the viability, T/C [14] was 80.5% and the viability, T/C [15] was 67.7%. It also gave a viability, T/C [16] of 69.3%, a viability, T/C (second compound 1 µM, first compound 3.16 µM) of 53.9% and a viability, T/C (second compound 1 µM, first compound 10 µM) of 20.4%. For the same compound, the viability, T/C [17] was 59.2%, the viability, T/C [18] was 59.8% and the viability, T/C [19] was 61.4%. The viability, T/C [20] was 54.7%, the viability, T/C (second compound 3.16 µM, first compound 3.16 µM) was 32% and the viability, T/C (second compound 3.16 µM, first compound 10 µM) was 7.49%. It also gave a viability, T/C [21] of 45.1%, a viability, T/C [22] of 50.7% and a viability, T/C [23] of 29.9%. It also gave a viability, T/C [24] of 29.7%, a viability, T/C (second compound 10 µM, first compound 3.16 µM) of 24.7% and a viability, T/C (second compound 10 µM, first compound 10 µM) of 5.91%.

`CCN1CCN(Cc2ccc(Nc3ncc(F)c(-c4cc(F)c5nc(C)n(C(C)C)c5c4)n3)nc2)CC1` + C#Cc1c(F)ccc2cc(O)cc(-c3ncc4c(N5CC6CCC(C5)N6)nc(OCC56CCCN5CC(F)C6)nc4c3F)c12 was tested, and the IC50 (second compound 0.0316 µM) was 0.504 µM, the IC50 (second compound 0.1 µM) was 0.356 µM and the IC50 (second compound 0.316 µM) was 0.187 µM. For the same compound, the IC50 (second compound 1 µM) was 0.104 µM, the IC50 (second compound 3.16 µM) was 0.0241 µM and the IC50 (second compound 10 µM) was less than 0.00316 µM. It also gave a viability, T/C (second compound 0.0316 µM, first compound 0.00316 µM) of 89.4%, a viability, T/C (second compound 0.0316 µM, first compound 0.01 µM) of 98.7% and a viability, T/C [1] of 98.8%. For the same compound, the viability, T/C [2] was 70.3%, the viability, T/C [3] was 62.4% and the viability, T/C [4] was 36.9%. It also gave a viability, T/C (second compound 0.1 µM, first compound 0.00316 µM) of 93.7%, a viability, T/C (second compound 0.1 µM, first compound 0.01 µM) of 93.6% and a viability, T/C [5] of 81.4%. It also gave a viability, T/C [6] of 63%, a viability, T/C [7] of 57.4% and a viability, T/C [8] of 28.8%. It also gave a viability, T/C (second compound 0.316 µM, first compound 0.00316 µM) of 93.8%, a viability, T/C (second compound 0.316 µM, first compound 0.01 µM) of 89.2% and a viability, T/C [9] of 85.4%. The viability, T/C [10] was 58.7%, the viability, T/C [11] was 42% and the viability, T/C [12] was 21.9%. It also gave a viability, T/C (second compound 1 µM, first compound 0.00316 µM) of 86.2%, a viability, T/C (second compound 1 µM, first compound 0.01 µM) of 88% and a viability, T/C [13] of 74.1%. It also gave a viability, T/C [14] of 50.5%, a viability, T/C [15] of 29.8% and a viability, T/C [16] of 20%. It also gave a viability, T/C (second compound 3.16 µM, first compound 0.00316 µM) of 77.6%, a viability, T/C (second compound 3.16 µM, first compound 0.01 µM) of 60.2% and a viability, T/C [17] of 48.5%. For the same compound, the viability, T/C [18] was 32.1%, the viability, T/C [19] was 22.4% and the viability, T/C [20] was 17%. It also gave a viability, T/C (second compound 10 µM, first compound 0.00316 µM) of 45.2%, a viability, T/C (second compound 10 µM, first compound 0.01 µM) of 42.5% and a viability, T/C [21] of 30.9%. The viability, T/C [22] was 23.6%, the viability, T/C [23] was 16.7% and the viability, T/C [24] was 12.2%.
